Measurements reported in US20260132132A1, “3A,4,5,6-TETRAHYDRO-1 H-PYRAZOLO[3,4-C]PYRIDIN-7(7AH)-ONE DERIVATIVES AS FACTOR XIIA INHIBITORS” (KALVISTA PHARMACEUTICALS LIMITED, priority 2022, published 2026).

Assays:
Format in all cases: biochemical
[1] = biological target: T1, Human Factor XIIa (hFXIIa) (Homo sapiens, UniProt P00748); test: Determination of Human Factor XIIa (hFXIIa) inhibition, fluorogenic substrate IC50 assay; conditions: fluorogenic substrate H-DPro-Phe-Arg-AFC at Km, 25° C., read-out: Human FXIIa IC50
T1 construct: purchased Enzyme Research Laboratories
T1 sequence (P00748 373-615 limits assumed): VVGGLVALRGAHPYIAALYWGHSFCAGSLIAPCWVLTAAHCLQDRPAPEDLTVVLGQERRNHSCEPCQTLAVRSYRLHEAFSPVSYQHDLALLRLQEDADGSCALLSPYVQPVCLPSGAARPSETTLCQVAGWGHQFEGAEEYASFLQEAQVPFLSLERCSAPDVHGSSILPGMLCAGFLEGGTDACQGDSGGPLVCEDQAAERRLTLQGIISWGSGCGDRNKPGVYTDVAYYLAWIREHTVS
T1 sequence (P00748 20-372 partner limits assumed): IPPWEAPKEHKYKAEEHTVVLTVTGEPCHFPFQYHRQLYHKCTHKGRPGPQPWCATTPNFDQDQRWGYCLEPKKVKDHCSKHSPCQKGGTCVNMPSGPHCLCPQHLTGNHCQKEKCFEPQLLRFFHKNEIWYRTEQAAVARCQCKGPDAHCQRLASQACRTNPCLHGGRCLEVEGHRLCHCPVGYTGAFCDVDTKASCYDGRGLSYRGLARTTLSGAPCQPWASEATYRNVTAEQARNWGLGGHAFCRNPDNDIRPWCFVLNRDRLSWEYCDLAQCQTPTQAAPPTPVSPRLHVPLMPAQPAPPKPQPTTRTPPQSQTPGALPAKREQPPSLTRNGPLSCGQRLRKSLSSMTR
Procedure: Determination of Human Factor XIIa (hFXIIa) inhibition
The Km for the cleavage of the substrate by hFXIIa was determined by standard transformation of the Michaelis-Menten equation, with subsequent inhibition assays performed at substrate Km concentration.

Thrombin = Thrombin (Homo sapiens, UniProt P00734); test: Related protease inhibition: Thrombin, fluorogenic substrate; conditions: fluorogenic substrate at Km, 25° C., H1-H3 = % activity at 40 μM; for activity at 40 µM: read-out: IC50 (human thrombin) nM
Procedure: (§1) Human serine protease enzyme Plasma Kallikrein, KLK1, FXa, Plasmin, Thrombin and Trypsin were assayed for enzymatic activity using an appropriate fluorogenic substrate at Km concentration, FXIa at fixed substrate concentration of 100 μM and various concentrations of the test compound.

FXa = FXa (Homo sapiens, UniProt P00742); test: Related protease inhibition: FXa, fluorogenic substrate; conditions: fluorogenic substrate at Km, 25° C., H1-H3 = % activity at 40 μM; for activity at 40 µM: read-out: IC50 (human FXa) nM
Sequence of FXa (P00742 235-488 limits assumed): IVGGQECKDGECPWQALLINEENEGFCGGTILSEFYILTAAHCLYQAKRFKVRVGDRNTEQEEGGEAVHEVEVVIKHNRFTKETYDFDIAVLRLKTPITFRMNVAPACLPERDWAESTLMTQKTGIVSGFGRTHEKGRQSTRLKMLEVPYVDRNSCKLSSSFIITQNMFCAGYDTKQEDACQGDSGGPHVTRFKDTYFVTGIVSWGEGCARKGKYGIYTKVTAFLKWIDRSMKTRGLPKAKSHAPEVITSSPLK
Sequence of FXa (P00742 41-179 partner limits assumed): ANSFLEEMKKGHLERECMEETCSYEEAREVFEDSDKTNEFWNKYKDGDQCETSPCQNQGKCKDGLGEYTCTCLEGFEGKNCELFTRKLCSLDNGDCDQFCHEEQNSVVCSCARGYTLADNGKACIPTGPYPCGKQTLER
Procedure: as §1

Compound | IC50 [1] [µM] | activity at 40 µM (Thrombin) [%] | activity at 40 µM (FXa) [%] | IC50 (Thrombin) [µM] | IC50 (FXa) [µM]
CCNC(=O)c1nn(-c2cccc(Cl)c2)c2c1CCN(c1cccc(N3CCN(C)CC3=O)c1)C2=O [Example 1420, 1-(3-chlorophenyl)-N-ethyl-6-(3-(4-methyl-2-oxopiperazin-1-yl)phenyl)-7-oxo-4,5,6,7-tetrahydro-1H-pyrazolo[3,4-c]pyridine-3-carboxamide] | 3 to 10 | > 80 | > 80 |  | 
CC(C)N1CCc2ccc(N3CCc4c(C(=O)NCC5CC5)nn(-c5cccc(Cl)c5)c4C3=O)cc2C1 [Example 1035, 1-(3-chlorophenyl)-N-(cyclopropylmethyl)-6-(2-isopropyl-1,2,3,4-tetrahydroisoquinolin-7-yl)-7-oxo-4,5,6,7-tetrahydro-1H-pyrazolo[3,4-c]pyridine-3-carboxamide] | 0.1 to 0.3 |  |  | > 100 | 10 to 40
CCNC(=O)c1nn(-c2cccc(C#N)c2C)c2c1CCN(c1ccc3c(c1)C(=O)N(C)CC3)C2=O [Example 2042, 1-(3-cyano-2-methylphenyl)-N-ethyl-6-(2-methyl-1-oxo-1,2,3,4-tetrahydroisoquinolin-7-yl)-7-oxo-4,5,6,7-tetrahydro-1H-pyrazolo[3,4-c]pyridine-3-carboxamide] | 10 to 40 | 20 to 80 | > 80 |  | 
COCCN1CCc2ccc(N3CCc4c(C(=O)NCC5CC5)nn(-c5cccc(Cl)c5)c4C3=O)cc2C1 [Example 1037, 1-(3-chlorophenyl)-N-(cyclopropylmethyl)-6-(2-(2-methoxyethyl)-1,2,3,4-tetrahydroisoquinolin-7-yl)-7-oxo-4,5,6,7-tetrahydro-1H-pyrazolo[3,4-c]pyridine-3-carboxamide] | 0.01 to 0.1 |  |  | > 100 | > 100
CCNC(=O)c1nn(-c2cccc(Cl)c2)c2c1CCN(c1cccc(N3CCOCC3=O)c1)C2=O [Example 1426, 1-(3-chlorophenyl)-N-ethyl-7-oxo-6-(3-(3-oxomorpholino)phenyl)-4,5,6,7-tetrahydro-1H-pyrazolo[3,4-c]pyridine-3-carboxamide] | 10 to 40 | 20 to 80 | 20 to 80 |  | 
CN1CCc2ccc(N3CCc4c(C(=O)N[C@@H](CO)C5CC5)nn(-c5cccc(Cl)c5F)c4C3=O)cc2C1=O [Example 2043, (R)-1-(3-chloro-2-fluorophenyl)-N-(1-cyclopropyl-2-hydroxyethyl)-6-(2-methyl-1-oxo-1,2,3,4-tetrahydroisoquinolin-7-yl)-7-oxo-4,5,6,7-tetrahydro-1H-pyrazolo[3,4-c]pyridine-3-carboxamide] | 0.01 to 0.1 | 20 to 80 | 20 to 80 |  | 
CN1CCc2ccc(N3CCc4c(C(=O)N[C@@H]5COC[C@@H]5O)nn(-c5cccc(Cl)c5)c4C3=O)cc2C1=O [Example 1412, 1-(3-chlorophenyl)-N-((3R,4R)-4-hydroxytetrahydrofuran-3-yl)-6-(2-methyl-1-oxo-1,2,3,4-tetrahydroisoquinolin-7-yl)-7-oxo-4,5,6,7-tetrahydro-1H-pyrazolo[3,4-c]pyridine-3-carboxamide] | 0.3 to 1 | 20 to 80 | 20 to 80 |  | 
Cc1cnccc1CNC(=O)c1nn(-c2cccc(Cl)c2)c2c1CCN(c1ccc3c(c1)C(=O)N(CCO)CC3)C2=O [Example 1357, 1-(3-chlorophenyl)-6-(2-(2-hydroxyethyl)-1-oxo-1,2,3,4-tetrahydroisoquinolin-7-yl)-N-((3-methylpyridin-4-yl)methyl)-7-oxo-4,5,6,7-tetrahydro-1H-pyrazolo[3,4-c]pyridine-3-carboxamide] | 0.3 to 1 |  |  |  | > 40
Cc1ccncc1CNC(=O)c1nn(-c2cccc(C#N)c2)c2c1CCN(c1ccc3c(c1)CN(CCO)CC3)C2=O [Example 2010, 1-(3-cyanophenyl)-6-(2-(2-hydroxyethyl)-1,2,3,4-tetrahydroisoquinolin-7-yl)-N-((4-methylpyridin-3-yl)methyl)-7-oxo-4,5,6,7-tetrahydro-1H-pyrazolo[3,4-c]pyridine-3-carboxamide] | 0.1 to 0.3 |  |  |  | > 40
COc1ccncc1CNC(=O)c1nn(-c2cccc(Cl)c2)c2c1CCN(c1ccc3c(c1)C(=O)N(C)CC3)C2=O [Example 1271, 1-(3-chlorophenyl)-N-((4-methoxypyridin-3-yl)methyl)-6-(2-methyl-1-oxo-1,2,3,4-tetrahydroisoquinolin-7-yl)-7-oxo-4,5,6,7-tetrahydro-1H-pyrazolo[3,4-c]pyridine-3-carboxamide] | 0.1 to 0.3 |  |  |  | > 40
CCNC(=O)c1nn(-c2cccc(Cl)c2)c2c1CCN(c1ccc3c(c1)C(=O)N(CCO)[C@@H](C)CO3)C2=O [Example 1381, (S)-1-(3-chlorophenyl)-N-ethyl-6-(4-(2-hydroxyethyl)-3-methyl-5-oxo-2,3,4,5-tetrahydrobenzo[f][1,4]oxazepin-7-yl)-7-oxo-4,5,6,7-tetrahydro-1H-pyrazolo[3,4-c]pyridine-3-carboxamide] | 1 to 3 |  |  |  | > 40
O=C(NCC1CC1)c1nn(-c2cccc(Cl)c2)c2c1CCN(c1ccc3c(c1)CN(C(=O)CO)CC3)C2=O [Example 1114, 1-(3-chlorophenyl)-N-(cyclopropylmethyl)-6-(2-(2-hydroxyacetyl)-1,2,3,4-tetrahydroisoquinolin-7-yl)-7-oxo-4,5,6,7-tetrahydro-1H-pyrazolo[3,4-c]pyridine-3-carboxamide] | 3 to 10 |  |  |  | > 40
Cc1cc(CNC(=O)c2nn(-c3cccc(Cl)c3)c3c2CCN(c2ccc4c(c2)C(=O)N(CCF)CC4)C3=O)nn1C [Example 1254, 1-(3-chlorophenyl)-N-((1,5-dimethyl-1H-pyrazol-3-yl)methyl)-6-(2-(2-fluoroethyl)-1-oxo-1,2,3,4-tetrahydroisoquinolin-7-yl)-7-oxo-4,5,6,7-tetrahydro-1H-pyrazolo[3,4-c]pyridine-3-carboxamide] | 0.01 to 0.1 |  |  |  | 10 to 40
CCNC(=O)c1nn(-c2cccc(Cl)c2)c2c(=O)n(-c3ccc4c(c3)C(=O)N(C)CC4)c(C)nc12 [Example 3022, 1-(3-chlorophenyl)-N-ethyl-5-methyl-6-(2-methyl-1-oxo-1,2,3,4-tetrahydroisoquinolin-7-yl)-7-oxo-6,7-dihydro-1H-pyrazolo[4,3-d]pyrimidine-3-carboxamide] | 0.3 to 1 |  |  |  | 10 to 40
O=C(c1nn(-c2cccc(Cl)c2)c2c1CCN(c1cccc(CN3CCCCC3)c1)C2=O)N1CCCC1 [Example 1009, 1-(3-chlorophenyl)-6-(3-(piperidin-1-ylmethyl)phenyl)-3-(pyrrolidine-1-carbonyl)-1,4,5,6-tetrahydro-7H-pyrazolo[3,4-c]pyridin-7-one] | 3 to 10 |  |  |  | > 100
C[C@@H](NC(=O)c1nn(-c2cccc(Cl)c2)c2c1CCN(c1ccc3c(c1)CN(CCO)CC3)C2=O)c1cccnc1 [Example 1145, (R)-1-(3-chlorophenyl)-6-(2-(2-hydroxyethyl)-1,2,3,4-tetrahydroisoquinolin-7-yl)-7-oxo-N-(1-(pyridin-3-yl)ethyl)-4,5,6,7-tetrahydro-1H-pyrazolo[3,4-c]pyridine-3-carboxamide] | 0.1 to 0.3 |  |  |  | 10 to 40
CCNC(=O)c1nn(-c2cccc(Cl)c2)c2c1CCN(c1cccc(N3CC4(CC4)CC3=O)c1)C2=O [Example 1389, 1-(3-chlorophenyl)-N-ethyl-7-oxo-6-(3-(6-oxo-5-azaspiro[2.4]heptan-5-yl)phenyl)-4,5,6,7-tetrahydro-1H-pyrazolo[3,4-c]pyridine-3-carboxamide] | 10 to 40 |  |  |  | > 40
CCNC(=O)c1nn(-c2cccc(Cl)c2)c2c1CCN(c1cccc(N3CC4CC4C3=O)c1)C2=O (stereo not drawn) [Example 1368, 1-(3-chlorophenyl)-N-ethyl-7-oxo-6-(3-(2-oxo-3-azabicyclo[3.1.0]hexan-3-yl)phenyl)-4,5,6,7-tetrahydro-1H-pyrazolo[3,4-c]pyridine-3-carboxamide] | 1 to 3 |  |  |  | > 40
CCN1Cc2cc(N3CCc4c(C(=O)NCC5CC5)nn(-c5cccc(Cl)c5)c4C3=O)ccc2[C@@H](C)C1 [Example 1153, (R)-1-(3-chlorophenyl)-N-(cyclopropylmethyl)-6-(2-ethyl-4-methyl-1,2,3,4-tetrahydroisoquinolin-7-yl)-7-oxo-4,5,6,7-tetrahydro-1H-pyrazolo[3,4-c]pyridine-3-carboxamide] | 0.3 to 1 |  |  |  | 10 to 40
